Measurements: US8354547B2, “4β-amino podophyllotoxin congeners as anti tumour antibiotics a process for the preparation thereof” (Council of Scientific & Industrial Research, priority 2008, dated 2013)

Columns and labels:
[1] = system: Colon (SW-620) cancer cell line; test: SRB in vitro cytotoxicity assay, Colon SW-620; format: cell-based, human; details: concentration 1 × 10^−5 (μM/mL)
Protocol: (§1) Single cell suspension of the tumor cells grown in tissue culture were made, cells counted and cell count adjusted to 1×10^5 to 5×10^5 Ninetysix (96) well plates were seeded with this cell suspension, each well receiving 100 μl of it. The plate was then be incubated at 37° C. temperature in CO2 incubator for 24 hours. Drugs were added at appropriate concentrations after 24-hour, incubation followed by further incubation for 48 hours. Experiment was terminated by gently layering the cells in the wells with 30% TCA and plates were kept in refrigerator for 1 hour following which they were washed thoroughly with tap water, dried attained with 0.4% SRB in 1% acetic aid and finally, the bound SRB eluted with 10 mM tris. Absorbance was read at 540 nm, in the microtitre-plate reader. Optical density of drug-treated cells was compared with that of control cells and cell inhibition was calculated as percent values. […]

[2] = system: Breast (MCF-7) cancer cell line; test: SRB in vitro cytotoxicity assay, Breast MCF-7; format: cell-based, human; details: concentration 1 × 10^−5 (μM/mL)
Protocol: as §1

[3] = system: Neuroblastoma (IMR-32) cancer cell line; test: SRB in vitro cytotoxicity assay, Neuroblastoma IMR-32; format: cell-based, human; details: concentration 1 × 10^−5 (μM/mL)
Protocol: as §1

[4] = system: Liver (HEP-2) cancer cell line; test: SRB in vitro cytotoxicity assay, Liver HEP-2; format: cell-based, human; details: concentration 1 × 10^−5 (μM/mL)
Protocol: as §1

[5] = system: Colon (Colo-205) cancer cell line; test: SRB in vitro cytotoxicity assay, Colon Colo-205; format: cell-based, human; details: concentration 1 × 10^−5 (μM/mL)
Protocol: as §1

[6] = system: CNS (SK-N-SH) cancer cell line; test: SRB in vitro cytotoxicity assay, CNS SK-N-SH; format: cell-based, human; details: concentration 1 × 10^−5 (μM/mL)
Protocol: as §1

Topoisomerase-I = molecular target: T1, Topoisomerase-I (Homo sapiens, UniProt P11387); test: Topoisomerase-I relaxation assay; format: biochemical; details: at 100 μM (FIG. 2)
T1 sequence (P11387 1-765): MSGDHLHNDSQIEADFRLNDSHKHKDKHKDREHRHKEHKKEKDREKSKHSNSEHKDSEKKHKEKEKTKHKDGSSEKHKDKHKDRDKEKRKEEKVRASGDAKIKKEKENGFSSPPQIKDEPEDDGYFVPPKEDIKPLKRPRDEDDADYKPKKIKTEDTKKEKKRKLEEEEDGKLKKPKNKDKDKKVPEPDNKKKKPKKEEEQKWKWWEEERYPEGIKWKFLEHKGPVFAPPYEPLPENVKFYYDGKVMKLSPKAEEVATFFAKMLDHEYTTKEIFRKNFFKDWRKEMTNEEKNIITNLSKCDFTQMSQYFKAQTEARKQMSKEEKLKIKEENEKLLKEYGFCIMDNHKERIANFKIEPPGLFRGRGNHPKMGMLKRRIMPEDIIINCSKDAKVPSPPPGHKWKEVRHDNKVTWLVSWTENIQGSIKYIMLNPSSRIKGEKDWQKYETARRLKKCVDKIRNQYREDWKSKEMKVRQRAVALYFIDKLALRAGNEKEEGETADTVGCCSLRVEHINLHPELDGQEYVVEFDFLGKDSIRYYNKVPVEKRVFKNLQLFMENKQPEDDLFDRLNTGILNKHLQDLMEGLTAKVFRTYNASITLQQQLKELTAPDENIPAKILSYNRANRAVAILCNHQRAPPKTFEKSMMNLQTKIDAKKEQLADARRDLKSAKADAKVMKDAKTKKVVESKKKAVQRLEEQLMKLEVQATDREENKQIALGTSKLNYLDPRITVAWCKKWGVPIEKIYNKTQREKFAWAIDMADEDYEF
Protocol: Apart from this, some of these analogues were evaluated for Topoisomerase-I relaxation, Topoisomerase-II inhibition, DNA laddering assay and DNA cell cycle analysis. Compounds 3c, 4c, 3d and 4d were analyzed for topoisomerase-I assay at 100 μM (FIG. 2) only compound 3d was found active and rest were not active. Compounds 3d, 4d and 4c were analyzed for topoisomerase inhibition assay.
Reaction was assembled in micro centrifuge tube that contains super coiled DNA 250 ng/μl & Topoisomerase-I (4 units) in assay buffer (10 mM Tris-HCl, pH 7.9, 0.15 M NaCl, 0.1% BSA, and 5.0 mM (beta)-mercaptoethanol). In each reaction 2 μl sample was added then volume was made up to 20 μl with water and then incubated at 37° C. Reaction was terminated by addition of 2 μl of 10% SDS. Each sample tube was treated with proteinase K and extracted once with chloroform: isoamyl alcohol. Products were resolved by 0.8% agarose gel electrophoresis in TAE buffer (40 mM tris-acetate, pH 8.0, and 1 mM EDTA) and stained with 0.5 μg/ml ethedium bromide (EtBr).

Lukemia (HL-60) cells = test: DNA cell cycle analysis by flow cytometry; format: cell-based; details: 0.5, 1, 5, and 10 μM, 24 hr (FIG. 5)
Protocol: (§2) Compound 3d evaluated for DNA laddering assay.
Effect of compound 3d on DNA content by cell cycle phase distribution was assessed using HL-60 cells by incubating the HL-60 cells (1×10^6) 1 ml phosphate buffer saline were treated with 3d (0.5, 1, 5, 10 μM) for 24 hr. The cells were then washed twice with ice-cold PBS, harvested, fixed with ice cold PBS in 70% ethanol, and stored at −20° C. for 30 minutes. After Fixation, these cells were incubated with RNase A (0.1 mg/ml) at 37° C. for 30 min, stained with propidium iodide (50 μg/ml) for 30 min on ice in dark, and then measured for DNA content using BD-LSR flow cytometer (Becton Dickinson, USA) equipped with electronic doublet discrimination capability using blue (488 nm) excitation from orgon laser. Data were collected in list mode on 10,000 events for FL2-A vs. FL2-W (FIG. 5).

leukemia (MOLT-4) cells = test: DNA laddering (fragmentation) assay by gel electrophoresis; format: cell-based; details: 0.5, 1, 5, and 10 μM, 24 hr incubation (FIG. 4)
Protocol: as §2
DNA fragmentation was determined by electrophoresis of extracted genomic DNA form leukemia cell (MOLT4). Briefly, exponentially growing cells (2×10^6 cells/mL) in 6 well plate were treated with compound 3d in 0.5, 1, 5 and 10 μM concentrations for 24 hrs. Cells were harvested, washed with PBS, pellets were dissolved in lyris buffer (10 mM EDTA, 50 mM Tris pH 8.0, 0.5% w/v SDS and proteinase K (0.5 mg/mL) and incubated at 50° C. for 1 hr. Finally the DNA obtained was heated rapidly to 70° C., supplemented with loading dye and immediately resolved on to 1.5% agarose gel at 50 V for 2-3 hrs (FIG. 4).

Topoisomerase-II = test: DNA Topoisomerase-II inhibition assay; format: biochemical; details: FIG. 3

SMILES | Growth Inhibition(%) Colon SW-620 [1] [%] | Growth Inhibition(%) Breast MCF-7 [2] [%] | Growth Inhibition(%) Neuroblastma IMR-32 [3] [%] | Growth Inhibition(%) Liver HEP-2 [4] [%] | Growth Inhibition(%) Colon Colo-205 [5] [%] | Growth Inhibition(%) CNS SK-N-SH [6] [%] | activity in topoisomerase-I assay (Topoisomerase-I) | cell cycle phase block (Lukemia (HL-60) cells) | sub G1 cell population (apoptosis) (Lukemia (HL-60) cells) | DNA fragmentation (leukemia (MOLT-4) cells) | activity in topoisomerase inhibition assay (Topoisomerase-II) (Topoisomerase-II)
COc1cc([C@@H]2c3cc4c(cc3[C@@H](Nc3ccc5ccc6cccc7ccc3c5c67)[C@@H]3COC(=O)[C@H]23)OCO4)cc(OC)c1OC [Compound 3c, 4β-(1″-Pyrenylamino)-4-desoxypodophyllotoxin] | 29 | 0 | 0 | 66 | 64 | 59 | not active |  |  |  | 
COc1cc([C@@H]2c3cc4c(cc3[C@@H](Nc3cc5c6ccccc6ccc5c5ccccc35)[C@@H]3COC(=O)[C@H]23)OCO4)cc(OC)c1OC [Compound 3d, 4β-(6″-Chrycenylamino)-4-desoxypodophyllotoxin] | 14 | 0 | 1 | 66 | 51 | 73 | active | blocks the G1 Phase | increase | induced DNA fragmentation | 
COc1cc([C@@H]2c3cc4c(cc3[C@@H](Nc3ccc5ccc6cccc7ccc3c5c67)[C@@H]3COC(=O)[C@H]23)OCO4)cc(OC)c1O [Compound 4c, 4′-O-Demethyl-4β-(1″-pyrenylamino)-4-desoxypodophyllotoxin] | 7 | 0 | 0 | 39 | 40 | 40 | not active |  |  |  | None of the compounds are active
COc1cc([C@@H]2c3cc4c(cc3[C@@H](Nc3cc5c6ccccc6ccc5c5ccccc35)[C@@H]3COC(=O)[C@H]23)OCO4)cc(OC)c1O [Compound 4d, 4′-O-Demethyl-4β-(6″-chrycenylamino)-4-desoxypodophyllotoxin] | 17 | 0 | 0 | 76 | 58 | 58 | not active |  |  |  | None of the compounds are active
